Key:
Type in all cases: functional, cell-based
Details in all cases: oocyte
[1] = target: T1, Solute carrier organic anion transporter family member 1A1 (Rattus norvegicus, UniProt P46720); assay: TP_TRANSPORTER: inhibition of Gadoxetate uptake (Gadoxetate: 100 uM, Rifampicin: 100 uM) in Xenopus laevis oocytes
T1 sequence (P46720 whole entry): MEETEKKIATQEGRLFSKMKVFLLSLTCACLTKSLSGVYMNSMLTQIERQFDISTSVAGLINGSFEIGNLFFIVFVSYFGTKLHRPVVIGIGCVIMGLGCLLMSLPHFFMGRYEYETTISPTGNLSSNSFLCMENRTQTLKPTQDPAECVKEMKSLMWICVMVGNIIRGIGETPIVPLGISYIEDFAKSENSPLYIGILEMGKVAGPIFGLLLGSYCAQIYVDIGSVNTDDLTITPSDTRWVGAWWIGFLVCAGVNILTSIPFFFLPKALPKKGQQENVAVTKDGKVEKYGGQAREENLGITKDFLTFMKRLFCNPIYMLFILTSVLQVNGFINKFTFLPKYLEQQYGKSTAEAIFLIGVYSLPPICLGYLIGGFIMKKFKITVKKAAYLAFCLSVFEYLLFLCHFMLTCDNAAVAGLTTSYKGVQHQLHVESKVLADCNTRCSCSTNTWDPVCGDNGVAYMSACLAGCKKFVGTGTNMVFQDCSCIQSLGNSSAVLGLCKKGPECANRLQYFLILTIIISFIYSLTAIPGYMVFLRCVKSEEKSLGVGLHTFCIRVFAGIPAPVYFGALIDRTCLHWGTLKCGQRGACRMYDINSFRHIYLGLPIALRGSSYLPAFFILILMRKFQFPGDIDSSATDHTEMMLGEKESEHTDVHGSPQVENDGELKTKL

[2] = target: T1, Solute carrier organic anion transporter family member 1A1; assay: TP_TRANSPORTER: inhibition of Gadoxetate uptake (Gadoxetate: 100 uM, Rifamycin SV: 100 uM) in Xenopus laevis oocytes
[3] = target: T1, Solute carrier organic anion transporter family member 1A1; assay: TP_TRANSPORTER: inhibition of Gadoxetate uptake (Gadoxetate: 100 uM, BSP: 10 uM) in Xenopus laevis oocytes
[4] = target: T1, Solute carrier organic anion transporter family member 1A1; assay: TP_TRANSPORTER: uptake in Xenopus laevis oocytes

## CO[C@H]1/C=C/O[C@@]2(C)Oc3c(C)c(O)c4c(O)c(c(/C=N/N5CCN(C)CC5)c(O)c4c3C2=O)NC(=O)/C(C)=C\C=C\[C@H](C)[C@H](O)[C@@H](C)[C@@H](O)[C@@H](C)[C@H](OC(C)=O)[C@@H]1C [RIFAMPIN]
[1]
  Activity: inhibitor [(at a rough estimate) 50 % of control]

## CO[C@H]1/C=C/O[C@@]2(C)Oc3c(C)c(O)c4c(O)c(cc(O)c4c3C2=O)NC(=O)/C(C)=C\C=C\[C@H](C)[C@H](O)[C@@H](C)[C@@H](O)[C@@H](C)[C@H](OC(C)=O)[C@@H]1C [RIFAMYCIN]
[2]
  Activity: inhibitor [(at a rough estimate) <5 % of control]

## O=C1OC(c2ccc(O)c(S(=O)(=O)[O-])c2)(c2ccc(O)c(S(=O)(=O)[O-])c2)c2c(Br)c(Br)c(Br)c(Br)c21.[Na+].[Na+] [SULFOBROMOPHTHALEIN SODIUM]
[3]
  Activity: inhibitor [(at a rough estimate) 55 % of control]

## GADOXETATE
[4]
  Km: 3.3 mM

From ChEMBL document CHEMBL2073792, “Hepatic uptake of the magnetic resonance imaging contrast agent gadoxetate by the organic anion transporting polypeptide Oatp1” (J Pharmacol Exp Ther, 1999)
